Data set [1] is described as follows: Storage stability of peptide activity. Type of data set: physicochemical. The following applies: stored in powder or solution form in a deep freezer.
The nature of data set [2]: Nanoparticle formation in solution (DLS). Type of data set: physicochemical. The following applies: DLS in saline, 25 °C, each sample analyzed five times. The procedure:
For determining the dimensions and nanoparticle formation of the peptides in solution, DLS analysis was performed using the Scatteroscope I nanoparticle size analyzer (K‐One, SOS1). Saline served as the negative control, and all experiments were conducted at a constant temperature of 25 °C. Each sample was analyzed five times, and the resulting data were graphically presented, incorporating all five profiles obtained from the experiments. The purity and dimer formation of the peptides were analyzed using HPLC and LC‐MS. HPLC analysis was carried out using a Shimadzu HPLC LabSolution equipped with a pump, an autosampler, a column oven, and a UV–vis detector. Chromatographic separation was performed on a Shimadzu C18 analytical column at 35 °C, with an injection volume of 20 µL (0.5 mg mL^−1). The mobile phases consisted of 0.05% trifluoroacetic acid (TFA) in water (A) and 0.05% TFA in acetonitrile (B). The flow rate was maintained at 1 mL min^−1, and the gradient program was as follows: 20–80% B over 30 min. Ionization was achieved using electrospray ionization (ESI) in positive mode with selected reaction monitoring (SRM). Mass spectrometry analysis was performed with an ESI source in the positive‐ionization mode.

In data set [3] the test system is MDA‐MB‐231 LM1 breast cancer. The data set can be described thus: MDA‐MB‐231 LM1 CDX mouse model. Type of data set: in vivo. The protocol:
Animal experiments were conducted in accordance with ethical guidelines, and all protocols were approved by the Institutional Animal Care and Use Committee under Hanyang University (approval numbers, 2014‐0016A, 2018‐0049A, 2018‐0207A, and 2019‐0169A), Chung‐Ang University (approval number, 2015‐00022), Chungbuk University (approval number, CBNUA‐1072‐17‐02), and Konkuk University (approval number, KU17130). To establish xenograft mice models, Hep3B, A431, U343, and PC9 cells were subcutaneously injected into the flank of Balb/c nude mice. For the MDA‐MB‐231 (LM1) cell line, it was implanted into the mammary fat pad of immunodeficient mice (NPG mice). […] Tumor volume was calculated using the formula of length × width^2)/2. […] The in vivo administration amount was determined based on the concentration of ACP52C confirmed at the cellular level, which was 2 µM. […] For ACP52C derivatives, the amount was adjusted to ensure a similar molar quantity of peptide injection, taking their molecular weights into account. For instance, in the case of ACP52CGK, ≈1.67 times the quantity was used compared to ACP52C to achieve an equivalent molar quantity. […] Hematoxylin and eosin (H&E)‐stained tissue sections were analyzed and photographed, and the representative histological images were recorded. […]

Data set [4] deals with Hep3B. The data set can be described thus: Hep3B CDX mouse model. Type of data set: in vivo. The procedure:
Animal experiments were conducted in accordance with ethical guidelines, and all protocols were approved by the Institutional Animal Care and Use Committee under Hanyang University (approval numbers, 2014‐0016A, 2018‐0049A, 2018‐0207A, and 2019‐0169A), Chung‐Ang University (approval number, 2015‐00022), Chungbuk University (approval number, CBNUA‐1072‐17‐02), and Konkuk University (approval number, KU17130). To establish xenograft mice models, Hep3B, A431, U343, and PC9 cells were subcutaneously injected into the flank of Balb/c nude mice. For the MDA‐MB‐231 (LM1) cell line, it was implanted into the mammary fat pad of immunodeficient mice (NPG mice). Once tumors were successfully established, the animals were randomly divided into a control (vehicle) group and an experimental (drug) group. When the tumor volume reached 100 cubic millimeters, either saline or an appropriate concentration of drugs was administrated into mice via tail vein every 3 or 5 days for appropriate duration. Tumor volume was calculated using the formula of length × width^2)/2. To generate an orthotopic liver cancer mice model, 75 mg kg^−1 (mpk) of DEN was intraperitoneally injected weekly for 3 weeks into C57BL/6 mice, followed by 100 mpk of DEN weekly for the subsequent 3 weeks. After 37 weeks of liver cancer induction, mice received either saline or an appropriate concentration of drugs via the tail vein every 5 days for the designated duration. The in vivo administration amount was determined based on the concentration of ACP52C confirmed at the cellular level, which was 2 µM. Assuming an average mouse weight of 30 grams and considering that ≈5.8% of body weight constitutes blood volume,^[ [49] ^] it was calculated that the blood concentration of ACP52C should be ten times the GI50 concentration in cell culture conditions. […] For ACP52C derivatives, the amount was adjusted to ensure a similar molar quantity of peptide injection, taking their molecular weights into account. For instance, in the case of ACP52CGK, ≈1.67 times the quantity was used compared to ACP52C to achieve an equivalent molar quantity. At the time of sacrifice, major organs and tumors were removed and weighed, and blood was extracted. For histological analysis, major organs and tumors of mice were immediately fixed in 10% formalin neutral buffer solution, dehydrated through a graded series of ethanol treatments, treated with xylene, paraffin embedded, and cut into 4 µm sections. Hematoxylin and eosin (H&E)‐stained tissue sections were analyzed and photographed, and the representative histological images were recorded. Liver nodules in the DEN orthotopic liver cancer model were estimated by measuring the ratio of tumor areas over entire liver tissues in the tissue section using an Image J (version 1.51) software at 40× magnification. Complete blood count (CBC) analysis was conducted using a Hematology analyzer (scil Vet ABC) from the extracted blood.

The mark [5] stands for this setting: administered at five‐day intervals.
Setting [6] is: intravenous injection at three‐day intervals, Sorafenib orally once daily as positive control.

“Also recorded” adds a separate entry of the source. *1 amine or outer side, *2 acyl side, *3 side chain or, on linkers, in order; H or OH if unused. Where a SMILES comes first, the peptide text is derived from it. Side-chain parts run from the residue outwards. The star is where a group is joined. γGlu = O=C(O)[C@H](CCC(=O)[*:2])N[*:1]; Palmitoyl = CCCCCCCCCCCCCCCC(=O)*

Regarding `CCCCCCCCCCCCCCCC(=O)N[C@@H](CCC(=O)NCCCC[C@H](NC(=O)CNC(=O)CNC(=O)[C@@H]1CCCN1C(=O)[C@H](CCCNC(=N)N)NC(=O)[C@H](CCC(N)=O)NC(=O)[C@@H]1CCCN1C(=O)[C@H](Cc1ccc(O)cc1)NC(=O)[C@H](CC(N)=O)NC(C)=O)C(=O)NCC(=O)NCC(=O)N[C@@H](CS)C(=O)N[C@@H](CCCNC(=N)N)C(=O)NCC(=O)N[C@@H](CC(=O)O)C(=O)N[C@@H](CCCCN)C(=O)NCC(=O)N1CCC[C@H]1C(=O)N[C@@H](CC(=O)O)C(=O)N[C@@H](CS)C(N)=O)C(=O)O` [ACP52CGK] (Ac-NYPQRPGGK([γGlu-Palmitoyl])GGCRGDKGPDC-NH2), the “loss of activity on storage” value in data set [1] is reported as “gradually lose their activity over one year”. Moreover, the nanoparticle formation result in data set [2] is recorded as “significant reduction in nanoparticle formation”. In data set [3] (administered at five‐day intervals, NPG mice), the “anti‐tumor efficacy” value was “remarkable anti‐tumor efficacy”. For the same molecule, the “anti‐tumor activity” value in data set [4] (setting [5]) is reported as “maintained its activity; also recorded: remarkable anti‐tumor efficacy”; in data set [4] (setting [6]) it was “activity similar to that of ACP52C”.
Turning to `CC(=O)N[C@@H](CC(N)=O)C(=O)N[C@@H](Cc1ccc(O)cc1)C(=O)N1CCC[C@H]1C(=O)N[C@@H](CCC(N)=O)C(=O)N[C@@H](CCCNC(=N)N)C(=O)N1CCC[C@H]1C(=O)N[C@@H](CS)C(=O)N[C@@H](CCCNC(=N)N)C(=O)NCC(=O)N[C@@H](CC(=O)O)C(=O)N[C@@H](CCCCN)C(=O)NCC(=O)N1CCC[C@H]1C(=O)N[C@@H](CC(=O)O)C(=O)N[C@@H](CS)C(N)=O` [ACP52C] (Ac-NYPQRPCRGDKGPDC-NH2), in data set [1], the “loss of activity on storage” value is recorded as “gradually lose their activity over one year”. Also, the nanoparticle formation result in data set [2] is recorded as “majority of ACP52C exists in the form of nanoparticles in saline”. Further, the tumor weight entry in data set [3] (intravenous injection every 2 or 3 days from day 14) is “significantly reduced tumor weight”. Also, the “anti‐tumor activity” value in data set [4] (setting [5]) is “reduced anti‐tumor activity compared to the three‐day interval administration”; in data set [4] (setting [6]) it was “superior anti‐tumor activity compared to Sorafenib”.

The record behind these values is publication PMC10667816, “A Cell‐Penetrant Peptide Disrupting the Transcription Factor CP2c Complexes Induces Cancer‐Specific Synthetic Lethality” (Advanced Science, 2023).
